This note sets out measurements from patent US10874686B2, “Anthranilyl-adenosinemonosulfamate analogs and uses thereof” (Memorial Sloan-Kettering Cancer Center, priority 2015, dated 2020).

For data set [1], the system named is MRC5 cells. The data set can be described thus: Cytotoxicity cell viability assay (CellTiter Glo), MRC5. Format: cell-based. The conditions noted are these: for IC50: Homo sapiens, MRC5, 48 hrs, luminescence; for toxicity in words, CellTiter Glo, MRC5: MRC5, luminescence readout, up to 1000 μM. The source says: (§1) Promega Cell Titer-Glo utilizes the ATP dependent conversion of Luciferin to Oxyluciferin by a recombinant Luciferase in order to quantify the number of metabolically active cells in a sample. Quantification is possible because the number of RLU's detected is linearly proportional to the amount of ATP produced by metabolically active cells in culture at the time of lysis. Therefore, the relative cytotoxicity of each compound can be tested by quantifying the amount of ATP present in each microtiter well as compared to control groups. HepG2 and MRC5 were plated at a density of 1500 cells/25 al in well in the assay plate and allowed to settle overnight. 0.1 μL of compounds was then transferred from the source plate, into the cell assay plates. The cells were left to incubate with the compounds for 48 hrs, after which, 25 μL of Promega Cell Titer-Glo was added to each well, and allowed to incubate at room temperature with shaking for 20 minutes. RLU's for each well were then recorded on a BioTek Synergy NEO. DMSO was used as negative control

For data set [2], the system named is HepG2 cells. The data set can be described thus: Cytotoxicity cell viability assay (CellTiter Glo), HepG2. Format: cell-based. To be noted: for toxicity in words, CellTiter Glo, HepG2: HepG2, luminescence readout, up to 1000 μM; for IC50: Homo sapiens, HepG2, 48 hrs, luminescence.
Excerpt: as §1
A general note: In ATP-based viability assays light output follows the ATP content of the culture.

Data set [3] has as its system MRC5 cells. The experiment in a line: Cell health and viability image-based study (fluorescence microscopy), MRC5. The conditions noted are these: for IC50: Homo sapiens, MRC5, imaging; for toxicity in words, imaging, MRC5: up to 1000 μM. The protocol:
The multiparametric assay developed surveys a number of elements of cell health simultaneously. Using a combination of 2 dyes, we are able to simultaneously measure nuclear morphology, membrane integrity and cell proliferation. All measurements are made on live cells after an incubation time of 24H. Hoechst 33342 is used to measure total number of cells, nuclear morphology and cell proliferation. The nuclear impermeable dye Syto17 is used to assess the nuclear membrane integrity by measuring the nuclear translocation of the dye when the membrane gets porous after incubation with a toxic compound. Cells were plated at a density of 1500 cells/25 al in well in a 384 wells plate the day before incubation with the drugs. The following day, 0.1 al of the source plate are added to the assay plate. Then, 25 al of a fluorophores mixture containing Hoechst 33342, Syto17 diluted in EMEM was added to each well. Plates are read after 48 h incubation in the ImageXpress instrument (Molecular Devices) using the appropriate filters. Images are analyzed using an application of MetaXpress software (Molecular Devices) and data are presented using Prism software. Low Signal Control (C23): 5 μM Staurosporine; High Signal Control (C24): DMSO.

Data set [4] concerns the target P. aeruginosa PqsA (Pseudomonas aeruginosa, UniProt Q9I4X3). The data set can be described thus: PqsA inhibition, spectrophotometric assay with recombinant PqsA (anthranilyl-CoA formation at 365 nm). Format: biochemical. The conditions noted are these: uncompetitive with respect to anthranilate and CoA. The protocol: PqsA inhibitors were evaluated using a quantitative spectrophotometric assay with recombinant PqsA, detecting formation of anthranilyl-CoA at 365 nm. See, e.g., Coleman et al. (2008) J. Bacteriol. 190, 1247. […] See, e.g., Morrison et al. Biochim. Biophys. Acta, Enzymol. 185, 269-286; Williams et al. (1979) Methods Enzymol. 63, 437. […] See, e.g., Qiao et al. (2007) J. Am. Chem. Soc. 129, 6350.
Reactions were performed at 37° C. in a 0.5 mL volume in a Varian Cary 100 UV-visible spectrophotometer with Cary WinUV software. Reaction mixtures contained 100 mM HEPES, pH 8.0, 0.2 mM dithiothreitol, 2 mM MgCl2, ˜3.3 μg PqsA protein (˜60 nM final), and depending on which substrate varied, 1 mM ATP (disodium salt), 0.5 mM coenzyme A (tri-lithium salt), 0.5 mM sodium anthranilate, and inhibitor (usually as a DMSO stock solution). Reactions were blanked and preincubated with all components except anthranilate at 37° C. for 1 min, then initiated by addition of anthranilate. Formation of anthraniloyl-CoA was monitored ance at 365 nm (ε=5.5 mM−1 cm−1) for 1 min. Data were analyzed using GraphPad Prism 6 software.

Data set [5] is described as follows: Pharmacokinetics in mice, plasma and lung. Format: in vivo. The conditions noted are these: 10 mg/kg intraperitoneal. The protocol: Twenty-four female mice were weighed and administered anthranilyl-AMS intraperitoneally at 10 mg/kg dose. The animals assigned for 24 hours sampling after dosing were kept in metabolic cages to collect urine and feces at an interval of 0 to 4, 4 to 8, and 8 to 24 hours. Approximately 60 μL of blood samples were collected from retro orbital plexus at 0.08, 0.25, 0.5, 1, 2, 4, 8, and 24 hours following i.p. administration. The blood samples were collected from three mice under light isoflurane anesthesia at each time point in labeled micro centrifuge tube containing K2EDTA solution. Blood samples were centrifuged at 4000 rpm for 10 minutes at 4±2° C. Immediately after plasma collection the animals were humanely euthanized by carbon dioxide asphyxiation, and lung samples were collected from each mouse at 0.08, 0.25, 0.5, 1, 2, 4, 8, and 24 hours. The tissue samples were then homogenized using ice-cold phosphate buffer saline (pH 7.4), and the total homogenate volume was three times of the tissue weight. The collected feces were weighed and homogenized with 9 volumes of ice-cold phosphate buffer saline (pH 7.4), and homogenates were stored below −70° C. until analysis. All samples were stored below −70° C. until sample analysis. The plasma and tissue samples were processed using protein precipitation with acetonitrile (ACN) and analyzed with fit for purpose LC-MS/MS method. Pharmacokinetic parameters were calculated using the non-compartmental analysis tool of Phoenix WinNonlin® (Version 6.3).

Setting [6] is: Hoechst 33342, read-out: Cell Count IC50, MRC5.
Setting [7] is: Syto17, read-out: Nuclear membrane integrity IC50, MRC5.

Like-named read-outs stand apart in the source and are kept apart here.

P. aeruginosa PqsA, sequence (Q9I4X3 whole entry): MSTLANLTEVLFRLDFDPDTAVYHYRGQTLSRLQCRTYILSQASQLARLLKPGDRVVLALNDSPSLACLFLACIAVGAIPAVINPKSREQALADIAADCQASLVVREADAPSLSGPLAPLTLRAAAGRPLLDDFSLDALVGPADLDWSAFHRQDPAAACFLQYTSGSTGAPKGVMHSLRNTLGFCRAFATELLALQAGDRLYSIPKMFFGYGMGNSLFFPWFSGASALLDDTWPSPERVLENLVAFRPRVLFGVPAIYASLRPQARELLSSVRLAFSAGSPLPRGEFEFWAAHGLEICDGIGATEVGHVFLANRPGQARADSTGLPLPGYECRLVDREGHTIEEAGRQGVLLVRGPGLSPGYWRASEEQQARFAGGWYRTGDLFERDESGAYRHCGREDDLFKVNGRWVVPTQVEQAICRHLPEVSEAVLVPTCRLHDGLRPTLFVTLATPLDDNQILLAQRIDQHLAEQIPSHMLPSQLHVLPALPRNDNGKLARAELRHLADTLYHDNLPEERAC

For orientation: IC50 means the concentration at which inhibition is half-maximal. The AUC is the area under the concentration-time curve, a measure of exposure. Usually Cmax stands for the peak of the concentration-time curve. On to `Nc1ccccc1C(=O)NS(=O)(=O)OC[C@H]1O[C@@H](n2cnc3c(N)ncnc32)[C@H](O)[C@@H]1O` [anthranilyl-AMS, Anthranilyl-AMS], for which, in data set [1], the IC50 worked out at 10.6 µM and the “toxicity in words, CellTiter Glo, MRC5” value is “significant toxicity in the tested range”. Also, in data set [2], the “toxicity in words, CellTiter Glo, HepG2” value is listed as “significant toxicity in the tested range” and the IC50 stood at 3.1 µM. Further, the IC50 in data set [3] (setting [6]) was found to be 21.5 µM. The IC50 in data set [3] (setting [7]) came out at 25.5 µM. Also, the “toxicity in words, imaging, MRC5” value in data set [3] is “significant toxicity in the tested range”. Further, the “mode of PqsA inhibition” value in data set [4] is on record as “competitive inhibitors with respect to ATP”. Besides, in data set [5] (lung), the AUC lung is 63.9 μg · min/mL or μg · min/g and the Cmax lung was 2000 ± 300 ng/mL. Moreover, the half-life in data set [5] (female, mouse, ip, lung, read-out: T1/2 lung) is 2.17 h. In data set [5] (female, mouse, ip, plasma), this compound showed an AUC of 5000 ng·h/mL and a maximum concentration (Cmax) of 12100 ± 2900 ng/mL. For the same compound, in data set [5] (female, mouse, ip, plasma, read-out: T1/2 plasma), the half-life was 1.06 h. Further, the Kp in data set [5] (female, mouse, lung / plasma, ip, read-out: lung/plasma ratio) was 0.21.
Turning to `Nc1ccccc1C(=O)NS(=O)(=O)NC[C@H]1O[C@@H](n2cnc3c(N)ncnc32)[C@H](O)[C@@H]1O` [anthranilyl-AMSN, Anthranilyl-AMSN], the IC50 worked out at 33.7 µM in data set [1], 19.2 µM in data set [2], 58.8 µM in data set [3] (setting [6]) and 74.3 µM in data set [3] (setting [7]). Further, the “toxicity in words, CellTiter Glo, MRC5” value in data set [1] is on record as “significant toxicity in the tested range”. Further, in data set [2], the “toxicity in words, CellTiter Glo, HepG2” value is recorded as “significant toxicity in the tested range”. Moreover, the “toxicity in words, imaging, MRC5” value in data set [3] is recorded as “significant toxicity in the tested range”. Besides, the “mode of PqsA inhibition” value in data set [4] is “competitive inhibitors with respect to ATP”.
